In patent US7259004B1, “Endophytic streptomycetes from higher plants with biological activity” (Montana State University, priority 2002, dated 2007):

Tests used:
[1] = tested on: Pseudomonas aeruginosa ATCC 27853; experiment: disk diffusion assay; format: cell-based; details: 10 micrograms per disk; ciprofloxacin 5, vancomycin 30 micrograms per disk; 35° C. Further: key: R = resistant.
[2] = tested on: Enterococcus faecalis ATCC 29212; experiment: disk diffusion assay; format: cell-based; details: 10 micrograms per disk; ciprofloxacin 5, vancomycin 30 micrograms per disk; 35° C.
[3] = tested on: Listeria monocytogenes 19114; experiment: microbroth dilution MIC; format: cell-based
[4] = tested on: S. epidermis ATCC 12228; experiment: disk diffusion assay; format: cell-based, Staphylococcus epidermidis; details: 10 micrograms per disk; 35° C.
[5] = tested on: Listeria monocytogenes 19115; experiment: microbroth dilution MIC; format: cell-based
[6] = tested on: Candida parasdosis ATCC 90018; experiment: disk diffusion assay; format: cell-based, Candida parapsilosis; details: 10 micrograms per disk; 35° C. Further: key: R = resistant.
[7] = tested on: Streptococcus pneumoniae 700676; experiment: microbroth dilution MIC
[8] = tested on: S. maltophilia ATCC 13637; experiment: disk diffusion assay; format: cell-based, Stenotrophomas maltophilia; details: 10 micrograms per disk; 35° C.
[9] = tested on: Plasmodium falciparum strain CSC-1 (Honduras); experiment: antimalarial assay, 3H-phenylalanine radiobioassay in human red blood cells; details: human red blood cells, 3H-phenylalanine; standard deviation of the mean, three experiments
[10] = tested on: Escherichia coli ATCC 25922; experiment: disk diffusion assay; format: cell-based; details: 10 micrograms per disk; penicillin G 10 units per disk; 35° C. Further: key: R = resistant.
[11] = tested on: Staphylococccus simulans 11631; experiment: microbroth dilution MIC; format: cell-based, Staphylococcus simulans
[12] = tested on: Candida tropicalis ATCC 750; experiment: disk diffusion assay; format: cell-based; details: 10 micrograms per disk; 35° C. Further: key: R = resistant.
[13] = tested on: S. epidermis 12228; experiment: microbroth dilution MIC; format: cell-based, Staphylococcus epidermidis
[14] = tested on: Vibrio fischeri PIC 345; experiment: disk diffusion assay; format: cell-based; details: 10 micrograms per disk; ciprofloxacin 5, vancomycin 30 micrograms per disk; 35° C.
[15] = tested on: Streptococcus pneumoniae 49619; experiment: microbroth dilution MIC; format: cell-based
[16] = tested on: Enterococcus faecium ATCC 49624; experiment: disk diffusion assay; format: cell-based; details: 10 micrograms per disk; ciprofloxacin 5, vancomycin 30 micrograms per disk; 35° C.
[17] = tested on: Staphylococccus aureus 27734; experiment: microbroth dilution MIC; format: cell-based, Staphylococcus aureus
[18] = tested on: Enterococcus faecalis ATCC 51299; experiment: disk diffusion assay; format: cell-based; details: 10 micrograms per disk; ciprofloxacin 5, vancomycin 30 micrograms per disk; 35° C.
[19] = tested on: B. subtilis 1A757; experiment: microbe, parasite or virus in culture; format: cell-based, Bacillus subtilis; details: for increase of MICs when DNA was added: Bacillus subtilis and Staphylococcus aureus, 20 micrograms per well sheared salmon sperm DNA
[20] = tested on: Streptococcus pneumoniae ATCC 49619; experiment: disk diffusion assay; format: cell-based; details: 10 micrograms per disk; ciprofloxacin 5, vancomycin 30 micrograms per disk; MHA with 5% dsb. and 5% CO2
[21] = tested on: Candida albicans ATCC 24433; experiment: disk diffusion assay; format: cell-based; details: 10 micrograms per disk; 35° C. Further: key: R = resistant.
[22] = tested on: brine shrimp; experiment: brine shrimp assays; details: preliminary assays
[23] = tested on: Staphylococcus aureus ATCC 29213; experiment: disk diffusion assay; format: cell-based; details: 10 micrograms per disk; ciprofloxacin 5, vancomycin 30 micrograms per disk; 35° C.
[24] = tested on: Acinetobacter sp. ATCC 49137; experiment: disk diffusion assay; format: cell-based; details: 10 micrograms per disk; ciprofloxacin 5, vancomycin 30 micrograms per disk; grown at 30° C.
[25] = tested on: GISA 700699; experiment: microbroth dilution MIC
[26] = tested on: Cryptococcus neoformans ATCC 32045; experiment: disk diffusion assay; format: cell-based; details: 10 micrograms per disk; 35° C.
[27] = tested on: Human Breast Cancer Epithelial BT-20; experiment: CellTiter 96 Aqueous Non-Radioactive Cell Proliferation Assay; format: cell-based; details: 96-144 hours; Table 7
[28] = tested on: Human Primary Mammary Epithelial HMEC; experiment: as above; format: cell-based; details: 48 hours; Table 7
[29] = tested on: Human Cervical Cancer Epithelial ME180; experiment: as above; format: cell-based; details: 48 hours; Table 7
Procedure, shortened: (§1)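 Cells rested 5 h at 37° C after seeding, then treated in triplicate with two-fold serial dilutions of compound. A-549 and ME-180 were exposed for 48 h. After 1–4 h MTS reagent at 37° C, OD490 was read and corrected by subtracting medium-only blanks.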

[30] = tested on: Human Lung Cancer Epithelial A549; experiment: as above; format: cell-based; details: 48 hours; Table 7
Procedure, shortened: as §1

[31] = tested on: S. aureus ATCC 6583P; experiment: MIC with and without double stranded DNA; format: cell-based, Staphylococcus aureus
[32] = tested on: M. tuberculosis H37Rv (ATCC 25618) (drug sensitive); experiment: IC50 in Mycobacteria 7H11 agar; format: cell-based, Mycobacterium tuberculosis; details: 7H11 agar with 10% OADC
[33] = tested on: S. aureus 29213; experiment: microbroth dilution MIC; format: cell-based, Staphylococcus aureus
[34] = tested on: E. faecalis 29212; experiment: microbroth dilution MIC; format: cell-based, Enterococcus faecalis
[35] = DNA +, 20 micrograms per well of sheared salmon sperm DNA

Substance	diameter of the zone of inhibition, Pseudomonas aeruginosa ATCC 27853 [1]	diameter of the zone of inhibition, Enterococcus faecalis ATCC 29212 [2]	MIC Listeria monocytogenes 19114 [3]	diameter of the zone of inhibition, S. epidermis ATCC 12228 [4]	MIC Listeria monocytogenes 19115 [5]	diameter of the zone of inhibition, Candida parasdosis ATCC 90018 [6]	MIC Streptococcus pneumoniae 700676 [7]	diameter of the zone of inhibition, S. maltophilia ATCC 13637 [8]	IC50 Plasmodium falciparum [9]	diameter of the zone of inhibition, Escherichia coli ATCC 25922 [10]	MIC Staphylococccus simulans 11631 [11]	diameter of the zone of inhibition, Candida tropicalis ATCC 750 [12]	MIC S. epidermis 12228 [13]	diameter of the zone of inhibition, Vibrio fischeri PIC 345 [14]	MIC Streptococcus pneumoniae 49619 [15]	diameter of the zone of inhibition, Enterococcus faecium ATCC 49624 [16]	MIC Staphylococccus aureus 27734 [17]	diameter of the zone of inhibition, Enterococcus faecalis ATCC 51299 [18]	increase of MICs when DNA was added [19]	MIC B. subtilis 1A757 [19, 35]	further results
munumbicin B	R	18 mm	4 micrograms/ml	21 mm	4 micrograms/ml	R	0.5 micrograms/ml	9 mm	130 ± 70 ng/mL	R	1 micrograms/ml	R	1 micrograms/ml	16 mm	0.5 micrograms/ml	21 mm	0.5 micrograms/ml	23 mm	affected	>32 micrograms/ml	1×MIC against Bacillus subtilis ([19]; concentration used in macromolecular synthesis assay): 2 micrograms/ml; diameter of the zone of inhibition, Streptococcus pneumoniae ATCC 49619 [20]: 17 mm; diameter of the zone of inhibition, Candida albicans ATCC 24433 [21]: R; LC50 brine shrimp [22]: 8.2 micrograms/ml; diameter of the zone of inhibition, Staphylococcus aureus ATCC 29213 [23]: 15 mm; diameter of the zone of inhibition, Acinetobacter sp. ATCC 49137 [24]: R; MIC GISA 700699 [25]: 2 micrograms/ml; diameter of the zone of inhibition, Cryptococcus neoformans ATCC 32045 [26]: 12 mm; IC50 Human Breast Cancer Epithelial BT-20 [27]: 0.019 micrograms/ml; IC50 Human Primary Mammary Epithelial HMEC [28]: 0.011 micrograms/ml; IC50 Human Cervical Cancer Epithelial ME180 [29]: 0.140 micrograms/ml; IC50 Human Lung Cancer Epithelial A549 [30]: 0.019 micrograms/ml; MIC S. aureus ATCC 6583P [31, 35]: >32 micrograms/ml; MIC S. aureus ATCC 6583P ([31]; DNA −): 2 micrograms/ml; IC50 M. tuberculosis H37Rv (ATCC 25618) (drug sensitive) [32]: 46 micrograms/ml; MIC S. aureus 29213 [33]: 0.5 micrograms/ml; MIC E. faecalis 29212 [34]: 0.25 micrograms/ml
munumbicin C	R	20 mm	4 micrograms/ml	R	2 micrograms/ml	R	0.125 micrograms/ml	R	6.5 ng/mL	R	1 micrograms/ml	R	2 micrograms/ml	9 mm	0.125 micrograms/ml	23 mm	0.5 micrograms/ml	22 mm	affected	>32 micrograms/ml	MIC B. subtilis 1A757 ([19]; DNA −): 0.5 micrograms/ml; diameter of the zone of inhibition, Streptococcus pneumoniae ATCC 49619 [20]: 7 mm; diameter of the zone of inhibition, Candida albicans ATCC 24433 [21]: R; LC50 brine shrimp [22]: 2.0 micrograms/ml; diameter of the zone of inhibition, Staphylococcus aureus ATCC 29213 [23]: R; diameter of the zone of inhibition, Acinetobacter sp. ATCC 49137 [24]: R; MIC GISA 700699 [25]: 2 micrograms/ml; diameter of the zone of inhibition, Cryptococcus neoformans ATCC 32045 [26]: 12 mm; IC50 Human Breast Cancer Epithelial BT-20 [27]: 0.013 micrograms/ml; IC50 Human Primary Mammary Epithelial HMEC [28]: 0.0023 micrograms/ml; IC50 Human Cervical Cancer Epithelial ME180 [29]: 0.1 micrograms/ml; IC50 Human Lung Cancer Epithelial A549 [30]: 0.3 micrograms/ml; MIC S. aureus ATCC 6583P [31, 35]: >32 micrograms/ml; MIC S. aureus ATCC 6583P ([31]; DNA −): 0.5 micrograms/ml; IC50 M. tuberculosis H37Rv (ATCC 25618) (drug sensitive) [32]: >150 micrograms/ml; MIC S. aureus 29213 [33]: 1 micrograms/ml; MIC E. faecalis 29212 [34]: 0.5 micrograms/ml
